Experimental findings from ChEMBL document CHEMBL1201862, “PubChem BioAssay data set” (2004) are described below.

Calls of active or inactive are those of the source.

For test [1], the system named is HEK293. The test is described as follows: cells. The test is classed as functional, cell-based. The following applies: Homo sapiens.
The test system of a further test is INS1. The experiment in a line: beta cell apoptosis inhibitors, cytokine rescue, dose response, luminescence, retest (AID 449756).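 Further: cell death triggered by IL-1 beta plus TNF-alpha plus IFN-gamma mixture; protective hits raise ATP signal compared with cytokine alone wells.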 It counts as functional, cell-based. The following applies: Rattus norvegicus.
The target in the next test is Hexokinase-1 (Homo sapiens, UniProt P19367). The experiment in a line: hexokinase 1 activators, dose response, selectivity assay for HKDC1 activator project, biochemical (AID 504762). It counts as functional.
The target in test [2] is T1, Heat shock factor protein 1 (Mus musculus, UniProt P38532).
T1 sequence (P38532 whole entry): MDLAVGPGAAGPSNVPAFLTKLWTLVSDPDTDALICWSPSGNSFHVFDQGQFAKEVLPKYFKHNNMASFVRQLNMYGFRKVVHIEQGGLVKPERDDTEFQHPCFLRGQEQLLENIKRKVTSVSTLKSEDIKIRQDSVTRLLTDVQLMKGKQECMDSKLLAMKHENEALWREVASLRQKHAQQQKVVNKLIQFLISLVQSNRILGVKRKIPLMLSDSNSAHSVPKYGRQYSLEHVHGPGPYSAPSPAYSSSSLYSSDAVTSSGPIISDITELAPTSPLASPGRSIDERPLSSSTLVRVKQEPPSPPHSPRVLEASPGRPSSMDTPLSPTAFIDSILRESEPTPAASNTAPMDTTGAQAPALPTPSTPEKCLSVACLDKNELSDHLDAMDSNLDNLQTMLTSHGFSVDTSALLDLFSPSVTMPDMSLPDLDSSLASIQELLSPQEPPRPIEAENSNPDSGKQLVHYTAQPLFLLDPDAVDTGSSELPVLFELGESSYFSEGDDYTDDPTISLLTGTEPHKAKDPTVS
The experiment in a line: inhibition of MG132-induced HSE-luciferase signal, confirmation, cell-based, NIH3T3, luminescence, dose retest (AID 2382).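 Further: NIH3T3 fibroblasts with HSF1-driven luciferase reporter stressed by proteasome inhibitor MG132; luminescence from HSF1-driven luciferase expression after 8 hours of MG132 stress.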 The test is classed as functional.

The target in another test is T2, Hexokinase HKDC1 (Homo sapiens, UniProt Q2TB90).
T2 sequence (Q2TB90 whole entry): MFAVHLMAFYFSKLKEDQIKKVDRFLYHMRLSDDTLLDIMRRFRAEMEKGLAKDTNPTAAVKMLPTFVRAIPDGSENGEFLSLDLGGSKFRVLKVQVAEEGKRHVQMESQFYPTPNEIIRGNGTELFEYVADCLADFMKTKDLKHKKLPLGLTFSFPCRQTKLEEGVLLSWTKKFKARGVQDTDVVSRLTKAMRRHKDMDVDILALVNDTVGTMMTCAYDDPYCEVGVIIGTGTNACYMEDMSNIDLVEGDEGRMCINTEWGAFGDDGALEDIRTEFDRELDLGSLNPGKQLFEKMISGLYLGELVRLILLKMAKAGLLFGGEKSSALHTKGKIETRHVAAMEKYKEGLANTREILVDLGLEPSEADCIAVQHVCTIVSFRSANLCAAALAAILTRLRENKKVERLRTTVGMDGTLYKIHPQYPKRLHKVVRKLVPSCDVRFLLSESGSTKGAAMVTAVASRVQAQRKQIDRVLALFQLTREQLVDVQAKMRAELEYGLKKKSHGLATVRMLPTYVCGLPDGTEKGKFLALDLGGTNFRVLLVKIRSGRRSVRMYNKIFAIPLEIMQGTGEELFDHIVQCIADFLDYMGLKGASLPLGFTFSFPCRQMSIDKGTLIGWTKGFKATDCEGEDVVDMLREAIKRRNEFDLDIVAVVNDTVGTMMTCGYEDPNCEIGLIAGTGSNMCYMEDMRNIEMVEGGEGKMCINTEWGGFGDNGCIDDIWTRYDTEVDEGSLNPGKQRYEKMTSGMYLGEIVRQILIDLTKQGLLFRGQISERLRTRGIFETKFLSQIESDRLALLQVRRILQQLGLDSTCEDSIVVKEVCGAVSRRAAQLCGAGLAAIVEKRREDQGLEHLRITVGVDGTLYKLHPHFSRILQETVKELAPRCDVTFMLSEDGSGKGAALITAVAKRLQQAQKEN
The test is described as follows: HKDC1 hexokinase activators, dose response, biochemical, W721R variant (AID 504730). The test is classed as functional.

For test [3], the system named is HEK293. The test is described as follows: NOD1 signaling inhibitors, primary screen, cell-based, luminescence, uHTS (AID 1578). It counts as functional. The following applies: Homo sapiens.
Test [4] concerns HEK293. The experiment in a line: cells. It counts as functional, cell-based. As to conditions: Homo sapiens. This is another data set of the same source.
For test [5], the system named is HEK293. The test is described as follows: cells. The following applies: Homo sapiens. It counts as functional, cell-based. This is another data set of the same source.
The subject of test [6] is HEK293. The experiment in a line: NOD2 signaling inhibitors in MDP-stimulated cells, cell-based, uHTS, luminescence (AID 2001). It counts as functional. The following applies: Homo sapiens.
Test [7] deals with Nucleotide-binding oligomerization domain-containing protein 2 (Homo sapiens, UniProt Q9HC29). The test is described as follows: NOD2 signaling inhibitors, cell-based, luminescence, uHTS, HEK293 (AID 1566). It counts as functional.
Test [8] in a line: Counterscreen for antagonists of the orexin 1 receptor (OX1R; HCRTR1): Fluorescence-based cell-based high throughput dose response assay to identify antagonists of the parental CHO cell line. [Related pubchem assays (depositor defined):AID434989, AID435008, AID463079, AID485270, AID492963, AID492964, AID492965, AID493232, AID504699, AID504701]. It counts as functional. In general terms: Counterscreens check selectivity or assay interference.

The next test concerns CHO-K1. The experiment in a line: Counterscreen for antagonists of the orexin 1 receptor (OX1R; HCRTR1): Homogeneous time resolved fluorescence (HTRF)-based cell-based dose response assay to identify antagonists of the parental CHO-K1 cell line. [Related pubchem assays (depositor defined):AID434989, AID435008, AID463079, AID485270, AID492963, AID492964, AID492965, AID493232, AID504699, AID504701]. It counts as functional. The following applies: Cricetulus griseus.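 Further: potency for inhibition of ATP-stimulated IP1 production as antagonists.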

Test [9] concerns the target T3, Orexin/Hypocretin receptor type 1 (Homo sapiens, UniProt O43613).
T3 sequence (O43613 whole entry): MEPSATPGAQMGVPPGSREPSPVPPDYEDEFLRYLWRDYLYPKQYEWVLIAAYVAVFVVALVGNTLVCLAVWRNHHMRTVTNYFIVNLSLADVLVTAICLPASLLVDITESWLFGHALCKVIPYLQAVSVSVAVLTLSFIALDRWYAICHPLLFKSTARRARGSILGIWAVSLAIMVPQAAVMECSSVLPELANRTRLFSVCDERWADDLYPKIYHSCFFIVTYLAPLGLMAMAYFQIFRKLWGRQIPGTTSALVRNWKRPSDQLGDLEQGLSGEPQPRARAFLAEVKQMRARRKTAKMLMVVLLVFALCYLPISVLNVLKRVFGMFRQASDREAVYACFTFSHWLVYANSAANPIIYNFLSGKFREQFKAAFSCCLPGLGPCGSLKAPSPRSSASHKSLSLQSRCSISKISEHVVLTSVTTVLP
The test is described as follows: Fluorescence-based cell-based high throughput dose response assay for antagonists of the orexin 1 receptor (OX1R; HCRTR1). [Related pubchem assays (depositor defined):AID434989, AID435008, AID463079, AID485270, AID492963, AID492964, AID492965, AID493232, AID504717, AID504718]. It counts as functional.

The target of test [10] is T3, Orexin/Hypocretin receptor type 1. The test is described as follows: Homogeneous Time Resolved Fluorescence (HTRF)-based cell-based high throughput dose response assay for antagonists of the orexin 1 receptor (OX1R; HCRTR1). [Related pubchem assays (depositor defined):AID434989, AID435008, AID463079, AID485270, AID492963, AID492964, AID492965, AID493232, AID504717, AID504718]. The test is classed as functional. Background: Time-resolved FRET reads energy transfer from a long-lived donor to a nearby acceptor.

For test [11], the target named is T4, Orexin receptor type 2 (Homo sapiens, UniProt O43614).
T4 sequence (O43614 whole entry): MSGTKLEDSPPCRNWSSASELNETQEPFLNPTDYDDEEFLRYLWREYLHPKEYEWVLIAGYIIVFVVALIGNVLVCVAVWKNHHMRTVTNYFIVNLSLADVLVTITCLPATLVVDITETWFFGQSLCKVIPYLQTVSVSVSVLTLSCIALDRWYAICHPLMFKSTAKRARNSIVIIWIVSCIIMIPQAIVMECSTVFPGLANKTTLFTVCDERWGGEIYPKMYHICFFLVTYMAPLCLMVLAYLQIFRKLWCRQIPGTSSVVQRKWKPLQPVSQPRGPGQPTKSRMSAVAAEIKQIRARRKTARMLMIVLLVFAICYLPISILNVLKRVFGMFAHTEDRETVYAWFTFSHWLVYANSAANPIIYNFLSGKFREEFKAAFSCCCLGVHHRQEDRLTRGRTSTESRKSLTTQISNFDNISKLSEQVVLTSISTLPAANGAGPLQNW
The test is described as follows: Counterscreen assay for antagonists of the orexin 1 receptor (OX1R; HCRTR1): Homogeneous Time Resolved Fluorescence (HTRF)-based cell-based dose response assay for antagonists of the orexin 2 receptor (OX2R; HCRTR2), run by assay provider. It counts as functional.

In test [12] the target is T4, Orexin receptor type 2. The experiment in a line: Counterscreen assay for antagonists of the orexin 1 receptor (OX1R; HCRTR1): Fluorescence-based cell-based dose response assay for antagonists of the orexin 2 receptor (OX2R; HCRTR2), run by assay provider. The test is classed as functional.
Test [13] can be described thus: Luminescence Cell-Based Dose Response HTS to Identify Inhibitors of 5'UTR Stem-Loop Driven Prion Protein mRNA Translation in H4 Neuroglioblastoma Cells. [Related pubchem assays: 1827 (Project Summary), 1813 (Primary HTS)]. It counts as functional.
The target of another test is SUMO-activating enzyme (Homo sapiens, UniProt Q9UBT2). The experiment in a line: SUMOylation inhibitor hit validation, confirmation, SUMOylation inhibitor project, biochemical, AlphaScreen (AID 2018). The test is classed as functional.
Test [14] is described as follows: inhibitors of firefly luciferase expression or activity, dose response, H4 neuroglioma cells, luminescence (AID 1990). It counts as functional, cell-based.
Test [15] is described as follows: inhibitors of SNCA 5'UTR-driven reporter translation, confirmation, H4 neuroglioma cells, luminescence (AID 1988). It counts as functional, cell-based.
Test [16] addresses Signal transducer and activator of transcription 3 (Homo sapiens, UniProt P40763). The test is described as follows: STAT3 inhibitors, late-stage profile, late-stage follow-up, cell-based, STAT1 panel, qPCR, cytotoxicity, panel member STAT3 Inhibition (AID 2078). Background: Real-time PCR tracks product formation cycle by cycle.
Test [17] has as its target Signal transducer and activator of transcription 1-alpha/beta (Homo sapiens, UniProt P42224). The experiment in a line: STAT3 inhibitors, late-stage profile, late-stage follow-up, cell-based, STAT1 panel, qPCR, cytotoxicity, panel member STAT1 Inhibition (AID 2078).

Sequence of SUMO-activating enzyme (Q9UBE0 whole entry): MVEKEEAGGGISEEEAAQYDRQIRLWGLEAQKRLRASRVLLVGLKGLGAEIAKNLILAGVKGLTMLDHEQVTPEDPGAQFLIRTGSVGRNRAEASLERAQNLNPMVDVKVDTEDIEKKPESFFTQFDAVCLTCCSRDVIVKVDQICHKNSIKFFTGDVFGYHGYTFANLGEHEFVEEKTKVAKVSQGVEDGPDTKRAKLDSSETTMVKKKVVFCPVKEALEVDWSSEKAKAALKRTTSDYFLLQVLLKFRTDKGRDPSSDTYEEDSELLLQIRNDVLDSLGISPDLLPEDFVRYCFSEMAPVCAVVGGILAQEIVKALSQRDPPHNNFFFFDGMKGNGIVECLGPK
Sequence of SUMO-activating enzyme (Q9UBT2 whole entry): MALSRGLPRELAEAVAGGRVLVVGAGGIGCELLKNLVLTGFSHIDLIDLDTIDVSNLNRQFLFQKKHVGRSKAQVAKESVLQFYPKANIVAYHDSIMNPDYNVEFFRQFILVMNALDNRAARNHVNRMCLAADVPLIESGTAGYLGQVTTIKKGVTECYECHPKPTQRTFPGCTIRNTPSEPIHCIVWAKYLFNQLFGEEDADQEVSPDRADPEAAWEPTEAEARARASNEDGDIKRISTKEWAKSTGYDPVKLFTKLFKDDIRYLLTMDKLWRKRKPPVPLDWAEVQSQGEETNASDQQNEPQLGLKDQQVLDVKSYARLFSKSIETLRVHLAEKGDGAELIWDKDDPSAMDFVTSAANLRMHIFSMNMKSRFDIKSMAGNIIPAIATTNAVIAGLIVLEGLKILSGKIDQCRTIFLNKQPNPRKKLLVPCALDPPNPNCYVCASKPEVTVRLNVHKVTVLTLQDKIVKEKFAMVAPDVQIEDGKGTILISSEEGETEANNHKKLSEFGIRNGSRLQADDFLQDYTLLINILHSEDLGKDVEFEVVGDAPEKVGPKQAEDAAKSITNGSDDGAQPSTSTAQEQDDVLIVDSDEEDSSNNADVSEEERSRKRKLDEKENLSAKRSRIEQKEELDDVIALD
Sequence of Signal transducer and activator of transcription 1-alpha/beta (P42224 whole entry): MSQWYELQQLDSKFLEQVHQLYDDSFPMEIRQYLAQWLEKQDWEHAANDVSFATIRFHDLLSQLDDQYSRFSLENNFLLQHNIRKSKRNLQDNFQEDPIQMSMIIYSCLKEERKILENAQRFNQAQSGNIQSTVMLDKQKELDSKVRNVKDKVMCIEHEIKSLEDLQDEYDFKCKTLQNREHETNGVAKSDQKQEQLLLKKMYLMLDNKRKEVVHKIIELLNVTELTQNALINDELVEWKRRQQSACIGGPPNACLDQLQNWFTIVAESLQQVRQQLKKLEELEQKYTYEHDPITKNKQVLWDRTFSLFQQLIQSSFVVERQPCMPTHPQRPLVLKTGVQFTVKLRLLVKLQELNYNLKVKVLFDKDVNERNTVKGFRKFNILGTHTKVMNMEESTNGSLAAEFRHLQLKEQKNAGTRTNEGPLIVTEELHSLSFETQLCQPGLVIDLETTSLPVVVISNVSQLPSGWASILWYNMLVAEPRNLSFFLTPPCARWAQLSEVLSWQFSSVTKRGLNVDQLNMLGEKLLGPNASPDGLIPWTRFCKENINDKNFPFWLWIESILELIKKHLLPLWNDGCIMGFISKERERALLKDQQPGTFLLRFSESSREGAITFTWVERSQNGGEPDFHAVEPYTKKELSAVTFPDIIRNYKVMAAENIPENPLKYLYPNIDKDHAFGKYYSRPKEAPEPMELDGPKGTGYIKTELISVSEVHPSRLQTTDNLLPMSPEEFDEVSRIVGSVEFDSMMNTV
Sequence of Hexokinase-1 (P19367 whole entry): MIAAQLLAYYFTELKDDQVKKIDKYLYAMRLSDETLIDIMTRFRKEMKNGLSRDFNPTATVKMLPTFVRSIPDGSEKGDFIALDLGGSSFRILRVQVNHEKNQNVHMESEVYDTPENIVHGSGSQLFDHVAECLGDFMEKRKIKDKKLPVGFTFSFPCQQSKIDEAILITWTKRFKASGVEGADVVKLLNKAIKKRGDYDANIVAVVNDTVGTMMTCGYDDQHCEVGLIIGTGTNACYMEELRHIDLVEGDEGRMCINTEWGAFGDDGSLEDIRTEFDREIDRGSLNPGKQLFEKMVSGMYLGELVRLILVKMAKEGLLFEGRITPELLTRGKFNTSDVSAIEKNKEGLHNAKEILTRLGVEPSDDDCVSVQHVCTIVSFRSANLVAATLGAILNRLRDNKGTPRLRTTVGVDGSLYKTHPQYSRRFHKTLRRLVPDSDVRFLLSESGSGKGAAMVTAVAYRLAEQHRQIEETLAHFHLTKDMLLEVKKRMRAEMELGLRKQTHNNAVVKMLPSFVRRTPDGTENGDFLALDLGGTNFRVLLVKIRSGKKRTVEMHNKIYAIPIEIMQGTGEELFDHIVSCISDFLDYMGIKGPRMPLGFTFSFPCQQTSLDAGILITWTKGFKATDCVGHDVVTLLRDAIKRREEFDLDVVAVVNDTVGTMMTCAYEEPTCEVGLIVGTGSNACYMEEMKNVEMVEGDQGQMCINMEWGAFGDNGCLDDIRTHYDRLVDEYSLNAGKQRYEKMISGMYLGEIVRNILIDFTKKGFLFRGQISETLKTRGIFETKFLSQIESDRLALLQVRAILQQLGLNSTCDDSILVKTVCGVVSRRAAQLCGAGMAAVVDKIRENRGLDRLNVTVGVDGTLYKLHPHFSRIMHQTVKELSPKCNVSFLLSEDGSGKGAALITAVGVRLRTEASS
Sequence of Signal transducer and activator of transcription 3 (P40763 whole entry): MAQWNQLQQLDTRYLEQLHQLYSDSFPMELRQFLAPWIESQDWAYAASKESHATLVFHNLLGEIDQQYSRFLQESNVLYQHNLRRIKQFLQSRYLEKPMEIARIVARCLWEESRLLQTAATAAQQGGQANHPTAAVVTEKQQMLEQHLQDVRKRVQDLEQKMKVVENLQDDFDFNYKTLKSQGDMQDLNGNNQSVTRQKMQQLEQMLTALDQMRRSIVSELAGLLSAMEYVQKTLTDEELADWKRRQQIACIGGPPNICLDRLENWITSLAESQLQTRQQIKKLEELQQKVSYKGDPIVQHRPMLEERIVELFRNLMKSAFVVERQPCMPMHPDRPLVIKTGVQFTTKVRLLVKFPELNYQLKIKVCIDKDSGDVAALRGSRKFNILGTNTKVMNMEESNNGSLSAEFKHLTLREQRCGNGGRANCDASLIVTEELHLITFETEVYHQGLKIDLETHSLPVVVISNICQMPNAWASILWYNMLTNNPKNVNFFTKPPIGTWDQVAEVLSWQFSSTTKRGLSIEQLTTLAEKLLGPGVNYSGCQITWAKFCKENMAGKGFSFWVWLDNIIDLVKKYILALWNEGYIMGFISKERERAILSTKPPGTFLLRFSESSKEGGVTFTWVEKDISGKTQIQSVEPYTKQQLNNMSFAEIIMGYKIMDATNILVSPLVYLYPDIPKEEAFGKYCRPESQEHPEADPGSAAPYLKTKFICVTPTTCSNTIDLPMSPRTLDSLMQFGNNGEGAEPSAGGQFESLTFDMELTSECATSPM
Sequence of Nucleotide-binding oligomerization domain-containing protein 2 (Q9HC29 whole entry, the tested form may be a part): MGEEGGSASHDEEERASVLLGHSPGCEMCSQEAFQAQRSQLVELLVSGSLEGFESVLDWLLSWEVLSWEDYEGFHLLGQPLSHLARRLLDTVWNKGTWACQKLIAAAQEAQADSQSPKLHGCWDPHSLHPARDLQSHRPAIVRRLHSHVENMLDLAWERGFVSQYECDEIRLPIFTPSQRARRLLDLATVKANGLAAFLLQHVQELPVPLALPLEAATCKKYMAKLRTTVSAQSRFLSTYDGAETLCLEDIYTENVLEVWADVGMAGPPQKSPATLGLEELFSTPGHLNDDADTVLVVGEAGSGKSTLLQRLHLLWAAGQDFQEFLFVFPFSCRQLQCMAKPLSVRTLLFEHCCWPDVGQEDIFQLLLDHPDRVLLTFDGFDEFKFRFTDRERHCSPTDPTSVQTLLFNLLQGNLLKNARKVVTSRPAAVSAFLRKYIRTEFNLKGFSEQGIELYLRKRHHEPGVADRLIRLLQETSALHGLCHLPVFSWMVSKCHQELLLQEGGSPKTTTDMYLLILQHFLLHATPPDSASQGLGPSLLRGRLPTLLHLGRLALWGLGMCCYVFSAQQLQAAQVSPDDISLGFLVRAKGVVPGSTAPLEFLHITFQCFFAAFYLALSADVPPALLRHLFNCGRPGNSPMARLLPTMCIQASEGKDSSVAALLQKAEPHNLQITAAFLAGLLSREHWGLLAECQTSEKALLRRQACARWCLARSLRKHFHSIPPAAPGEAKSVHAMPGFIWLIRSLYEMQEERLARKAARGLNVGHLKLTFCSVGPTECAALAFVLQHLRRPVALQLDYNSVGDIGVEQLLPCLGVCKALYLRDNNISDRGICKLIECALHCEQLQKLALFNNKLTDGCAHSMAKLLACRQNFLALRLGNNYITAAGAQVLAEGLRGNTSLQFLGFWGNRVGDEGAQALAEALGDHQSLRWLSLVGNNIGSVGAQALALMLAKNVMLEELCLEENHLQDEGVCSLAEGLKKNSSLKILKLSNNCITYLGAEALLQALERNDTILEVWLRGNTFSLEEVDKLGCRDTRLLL

By IC50 is commonly meant the concentration that inhibits the measured activity by half. Broadly, the AC50 is the concentration giving half of the maximal activity seen. One may read the EC50 as the concentration needed to bring the measured effect to its halfway point. For `CCCOc1ccc(/C=N/NC(=S)Nc2ccccc2[N+](=O)[O-])c(O)c1`, the IC50 is > 20 µM (inactive) in the test with HEK293 [1], > 20 µM (inactive) in the test with HEK293 [4], 1.82 µM (active) in the test with HEK293 [5] and 0.233 µM (active) with HEK293 [6]. For the same molecule, the AC50 in the test on INS1 is 1.28 µM (active). Further, the EC50 on Hexokinase-1 was > 80 µM (inactive); in [2], 11 µM (active); at Hexokinase HKDC1 it was 26.5 µM (inactive); in the test with HEK293 [3], 11.9 µM (active); in test [7], 0.78 µM (active).
With `COc1ccc2c(c1)nc(O)c1sc3ccccc3c12`, the IC50 in test [8] is > 49.7 µM (inactive); in the test with CHO-K1, > 66.2 µM (inactive); in test [9], 7.77 µM (active); in [10], 2.49 µM (active); at Orexin receptor type 2 [11] it was > 50 µM (inactive); on Orexin receptor type 2 [12], 5.5 µM (active).
On to `C=CCn1c(N)c(C(=O)Nc2ccccc2)c2nc3ccccc3nc21`, for which the EC50 is > 120 µM (not active) in test [13], 22 µM (active) in test [14] and > 120 µM (not active) in test [15]. The concentration for half-maximal inhibition (IC50) at SUMO-activating enzyme was 14.5 µM (active).
Regarding `CNc1nc(Nc2ccc(C)c(Cl)c2)c2cnn(C)c2n1`, the IC50 in test [8] is > 49.8 µM (inactive); with CHO-K1, > 66.2 µM (inactive); in test [9] it was 14.4 µM (inactive); in test [10], 2.07 µM (active); on Orexin receptor type 2 [11], > 50 µM (inactive); on Orexin receptor type 2 [12], > 88.8 µM (inactive).
Regarding `COC(=O)c1cc2c(N3CCC(Cc4ccccc4)CC3)ncnc2s1`, the IC50 in test [16] is > 18.6 µM (inactive); in [17], > 55.7 µM (inactive).
